Reference: patent publication US12544378B2, “Solid pharmaceutical formulation of PARP inhibitors and use thereof” (IMPACT THERAPEUTICS (SHANGHAI), INC, priority 2015, dated 2026)

Tests used:
[1] = Absorption of amorphous solid dispersion HP-55 (1:3), mouse pharmacokinetics (PK) method (Example 11); type: in vivo; settings: whole blood, mice, IV, 1 mg/kg, solution in DMSO:10% HP-β-CD PBS (1:9)
Description: Measurement of the Absorption Ratio of the Amorphous Solid Dispersions of 5-fluoro-1-(4-fluoro-3-(4-(pyrimidin-2-yl)piperazine-1-carbonyl)benzyl)quinazoline-2,4(1H,3H)-dione:HP-55 (1:3) Using a Mouse Pharmacokinetics (PK) Method
(§1) The solution of 5-fluoro-1-(4-fluoro-3-(4-(pyrimidin-2-yl)piperazine-1-carbonyl)benzyl)quinazoline-2,4(1H,3H)-dione in DMSO:10% HP-β-CD PBS (1:9) was administered to mice at 1 mg/kg by IV. And the homogeneous suspension of the amorphous solid dispersion of 5-fluoro-1-(4-fluoro-3-(4-(pyrimidin-2-yl)piperazine-1-carbonyl)benzyl)quinazoline-2,4(1H,3H)-dione:HP-55 (1:3) in 0.5% MC/water was administered to mice at 10 mg/kg by IG. The blood was sampled at a certain time after administration. The blood concentrations were measured by LCMS method, and the oral absorption was measured by a mouse pharmacokinetics (PK) method.

Water solubility = type: physicochemical
[2] = Bioavailability after oral administration of the crystalline compound; settings: mouse, in vivo, mice, simple mixture of crystalline compound with surfactants (Tween 80) and emulsifiers (methylcellulose)
[3] = Effects of vehicle formulas on drug absorption, mouse pharmacokinetics (PK) method (Example 8); type: in vivo; settings: ICR mice, gavage, solution in DMSO:10% HP-β-CD PBS=1:9
Description: Measurement of the Effects of 5-fluoro-1-(4-fluoro-3-(4-(pyrimidin-2-yl)piperazine-1-carbonyl)benzyl)quinazoline-2,4(1H,3H)-dione Vehicle Formulas on the Drug Absorption Using a Mouse Pharmacokinetics (PK) Method
5-Fluoro-1-(4-fluoro-3-(4-(pyrimidin-2-yl)piperazine-1-carbonyl)benzyl)quinazoline-2,4(1H,3H)-dione in different vehicle formulas at the same dosage was administered to ICR mice by gavage. The blood was sampled at 30 min after gavage, the blood concentrations were measured by LCMS method, and the effects on the drug absorption of different vehicle formulas was made a comparison. The blood concentrations were shown as the table below: […]

[4] = Absorption of amorphous solid dispersion HP-55 (1:3), rat pharmacokinetics (PK) method (Example 12); type: in vivo; settings: whole blood, Wistar rats, IV, 1 mg/kg, solution in DMSO:10% HP-β-CD PBS (1:9)
Description: Measurement of the Absorption Ratio of the Amorphous Solid Dispersions of 5-fluoro-1-(4-fluoro-3-(4-(pyrimidin-2-yl)piperazine-1-carbonyl)benzyl)quinazoline-2,4(1H,3H)-dione:HP-55 (1:3) Using a Rat Pharmacokinetics (PK) Method
as §1, with “Wistar rats” for “mice”, “rat” for “mouse”

AUC(0-inf) [1]: 997 ng·h/mL
AUC(0-t) [1]: 991 ng·h/mL
Cmax [1]: 1920 ng/mL
half-life [1]: 32.7 min
water solubility (in words) (Water solubility): very low
bioavailability [2]: < 5%
oral absorption rate [3]: 48%
AUC(0-inf) ([4]; female): 1290 ng·h/mL
AUC(0-t) ([4]; female): 1250 ng·h/mL
Cmax ([4]; female): 618 ng/mL
half-life ([4]; female): 304 min
AUC(0-inf) ([4]; male): 365 ng·h/mL
AUC(0-t) ([4]; male): 363 ng·h/mL
Cmax ([4]; male): 896 ng/mL
half-life ([4]; male): 51 min
Compound: O=C(c1cc(Cn2c(=O)[nH]c(=O)c3c(F)cccc32)ccc1F)N1CCN(c2ncccn2)CC1 [5-fluoro-1-(4-fluoro-3-(4-(pyrimidin-2-yl)piperazine-1-carbonyl)benzyl)quinazoline-2,4(1H,3H)-dione]
